Assay results published in publication PMC9171067, “A High Throughput Cell-Based Screen Assay for LINE-1 ORF1p Expression Inhibitors Using the In-Cell Western Technique” (Frontiers in Pharmacology, 2022).
pEC50: −log10 of the molar value. Read-outs that look alike come from different tables or passages of the source.

Columns and labels:
[1] = tested on: LINE-1 5'-UTR promoter; experiment: L1-FL luciferase reporter driven by the LINE-1 5'-UTR promoter in 293 T cells; format: cell-based, human
[2] = tested on: LINE-1 ORF1p expression; experiment: In-Cell Western (ICW) assay of LINE-1 ORF1p expression in T-47D cells; format: cell-based, human; conditions: for pEC50: Homo sapiens, T47D, T-47D cells 15000/well, serially diluted compound, 24 h incubation, ICW, read-out: EC50 for diminishing LINE-1 ORF1p expression level; for Inhibition Activity (%) of LINE-1 ORF1p expression: ICW screen, T47D cells, compounds 10 μM, 48 h
Protocol: T-47D cells grown at 1×10^3 cells per well in 96-well plates (Corning Incorporated Costar, #3603). After 24 h incubation, chemical compounds (10 μM) were added to each well. After 48 h incubation, plates were fixed with 4% paraformaldehyde (PFA) for 20min at room temperature (RT). Then the cells were permeabilized with 0.2% Triton X-100 for 15min at RT, and blocked with Odyssey Blocking Buffer (TBS) (LI-COR, 9275000) for 1 h at RT. The cells were incubated at 4°C overnight with a rabbit monoclonal anti-ORF1p antibody (diluted 1:200, Abcam) and a mouse monoclonal anti-beta-actin antibody (diluted 1:250, Abcam) with gentle shakes. After five washes with PBS, the cells were stained with an IRDye® 800RD Goat anti-Rabbit antibody (diluted 1:400, LI-COR, #926–68071) and IRDye® 680CW Goat anti-Mouse antibody (1:600, LI-COR, #926–32210) at RT for 2 h. The microplates, were scanned with the Odyssey system (LI-COR), and the integrated fluorescence intensities representing the protein expression levels were acquired using Image Studio Ver 5.2 software ([Egorina et al., 2006]). Compared with DMSO control, compounds with an inhibition rate over 50% were defined as promising compounds.
(§1) The 50% cytotoxic concentration (CC50) values of 5 drug leads were measured using normal […] cell line HUVEC and breast cancer cell line T-47D at 6 different inhibitor concentrations. HUVEC and T47-D cell lines in the logarithmic phase were reseeded into 96-well plates (Nest Inc.) at a density of 1×10^3 cells/well and the plates were incubated for up to 2 days. At the end of each experiment, cells were incubated with 10 µl of the CCK-8 reagent (Vazyme) at 37°C for 2 h. The optical density (OD) at 450 nm was measured by a microplate reader (PerkinElmer Inc.) according to the manufacturer’s instructions. The data are expressed as % of the control. The experiments were repeated at least three times. The 50% effective concentration (EC50) of 5 drugs were measured using breast cancer cell line T-47D and 6 different inhibitor concentrations.

[3] = CCK-8 cell viability (CC50) in T-47D cells; format: cell-based; conditions: human
Protocol: as §1

[4] = tested on: LINE-1 RNA; experiment: RT-qPCR of LINE-1 RNA level in T-47D cells; format: cell-based, human; conditions: IFNα17 200 Units/mL, 48 h
Excerpt: Total RNA was extracted from cells using TRIZOL Reagent (Invitrogen). RNA was reverse transcribed to cDNA using MLV Reverse Transcriptase (Invitrogen) with random primers. The cDNAs were quantified using SsoFast EvaGreen Supermix (Bio-Rad) with Bio Rad iCycler iQ5 Real-Time PCR systems. Primer sequences for cDNAs were as follows: (5′-AATGAGATCACATGGACACAGGAAG-3’/5′- TGTATACATGTGCCATGCTGGTGC-3′).

[5] = tested on: NCl-H661 cells; experiment: CCK8 cell proliferation assay, NCl-H661; format: cell-based, human; conditions: IFNα17 200 or 500 Units/mL, 6 days
Protocol: (§2) To analyze the anti-proliferation effects of the three compounds and IFN17α against carcinoma cells, NCI-H661, NCI-H446, T47-D, MRC-5 and WI-38 cell lines in the logarithmic phase were reseeded into 96-well plates (Nest Inc.) at a density of 1×10^4 cells/well and the plates were incubated for 24 h. Next, IFN17α (200U/mL) was incubated with NCI-H661, NCI-H446, T47-D and MRC-5 cells, compounds #1(Hydroxyprogesterone), #2 (2,2':5′,2″-Terthiophene) and #3 (Ethynyl estradiol) were added at the concentrations of 10μM and 20 μM respectively, for consecutive 6 days. Cells were incubated with 10 µl of the CCK-8 reagent (Vazyme) each day at 37°C for 2 h. The optical density (OD) at 450 nm was measured by a microplate reader (PerkinElmer Inc.) according to the manufacturer’s instructions. The experiments were repeated at least three times.

[6] = tested on: LINE-1 ORF1p expression; experiment: Immunoblotting of LINE-1 ORF1p in T-47D cells; format: cell-based, human; conditions: 48 h
Protocol: Cells were collected and lysed with NP-40 buffer (Beyotime). The protein lysis was boiled for 20 min at 100 C in SDS-PAGE loading buffer. Equal amounts of cell lysate were […]. Proteins were transferred onto a PVDF membrane, blocked with 5% skim milk, and probed with anti-ORF1p antibody (diluted 1:1000) and anti-β-actin antibody (diluted 1:5,000) at 4°C overnight. After four wash steps with PBS plus 0.1% Tween 20 (PBST), the membrane was incubated with 1:5,000 dilution of HRP-conjugated goat-anti-mouse, HRP-conjugated goat-anti-rabbit, IRDye® 800CW Goat anti-Rabbit 926–32,211 (1:10,000, LI-COR) and IRDye® 700CW Goat anti-Mouse 926–32,210 (1:10,000, LI-COR) secondary antibodies for 1 h at room temperature. After four wash steps with PBS plus 0.1% Tween 20 (PBST), signals were detected using Western Lightning chemiluminescence reagent or analyzed with the Odyssey infrared imaging system and the software program as specified in the Odyssey software manual.

[7] = tested on: NCl-H446 cells; experiment: CCK8 cell proliferation assay, NCl-H446; format: cell-based, human; conditions: IFNα17 200 or 500 Units/mL, 6 days
Protocol: as §2

[8] = tested on: T47D cells; experiment: CCK8 cell proliferation assay, T47D; format: cell-based, human; conditions: IFNα17 500 Units/mL, 6 days
Protocol: as §2, with “Next, IFN17α (200U/mL) was incubated with NCI-H661, NCI-H446, T47-D and MRC-5 cells, compounds #1(Hydroxyprogesterone), #2 (2,2':5′,2″-Terthiophene) and #3 (Ethynyl estradiol) were added at the concentrations of 10μM and 20 μM respectively, for consecutive 6 days.” left out

[9] = tested on: LINE-1 retrotransposition; experiment: LINE-1 retrotransposition dual-luciferase assay (pWA367 reporter) in HeLa cells; format: cell-based, human; conditions: 10 μM
Protocol: This assay is utilized to measure the influence of the compounds on LINE-1 retrotransposition or the L1 5′UTR promoter activity. A 200:1 ratio of FL-L1 or pWA367 and pCMV-Rluc was transfected into HeLa cells, Rluc was served as a control to normalize the Firefly luciferase activity level. Six hours post-transfection, cells were reseeded in 96-well plates, and the plates were incubated for up to 1 day. Next, compounds #1:Hydroxyprogesterone (10μM, 20 μM), # 2: 2,2':5′,2″-Terthiophene (10μM, 20 μM) and # 3: Ethynyl estradiol (10μM, 20 μM) were added. 72–96 h after adding tested compounds to the cells, 25 μl passive lysis buffer was added in each well to lyse cells, and then, 20 μl lysate was detected by dual-luciferase reporter assay system (Promega, USA). Furthermore, the activity levels of Renilla and Firefly luciferase were quantified using Promega Luciferase Assay Kit (Promega) on a Berthold microplate reader.

## c1csc(-c2ccc(-c3cccs3)s2)c1 [#2, 2,2':5′,2″-Terthiophene]
[1]; 10 μM
  effect on luciferase value (L1-FL): mild effects
[2]
  pEC50: 4.49
  Inhibition Activity (%) of LINE-1 ORF1p expression: 56%
[3]
  CC50: 95.5 µM

## IFNα17: interferon used as positive control in inhibiting LINE-1 ORF1p expression level in the ICW assay
[4]
  suppression of LINE-1 RNA level: over 60%
[5]
  effect of IFNα17 on proliferation of NCl-H661: significantly decrease
[6]
  effect on LINE-1 ORF1p level by immunoblotting: obviously decrease ORF1p level in a dose-dependent manner
[7]
  effect of IFNα17 on proliferation of NCl-H446: significantly decrease
[1]; IFNα17 200 Unit/mL, 500 Unit/mL
  effect on luciferase value (L1-FL): mild effects
[2]; T-47D cells, increasing doses of IFNα17
  effect on ICW fluorescence value (ORF1p): decreased fluorescence value in a dose-dependent way
[8]
  effect of IFNα17 on proliferation of T47D: inhibition became obvious

## Cc1cn([C@H]2C=C[C@@H](CO)O2)c(=O)[nH]c1=O [d4T, reference compound]
[9]
  effect on LINE-1 retrotransposition (Fluc/Rluc): inhibited LINE-1 retrotransposition
[6]
  effect on LINE-1 ORF1p level by immunoblotting: little effect

## C#C[C@]1(O)CC[C@H]2[C@@H]3CCc4cc(O)ccc4[C@H]3CC[C@@]21C [#3, Ethynyl estradiol]
[9]
  effect on LINE-1 retrotransposition (Fluc/Rluc): best potent activity
[1]; 10 μM
  suppression of luciferase value (L1-FL): over 60%
[2]
  pEC50: 4.91
  Inhibition Activity (%) of LINE-1 ORF1p expression: 60%
[3]; T-47D breast cancer cells, T-47D cells 1000/well, CCK-8, read-out: CC50
  CC50: 91.4 µM
